Data set [1] concerns IBL1, LY7 and BCKN1 cells. Put plainly: Viability assay at higher plating density. It is filed as cell-based. The note with it: 5*10^5 cells/mL versus original assay conditions. Here is the method:
[…] ATP content at 24, 48 and 72 hours post-treatment was measured by the CellTiter-Glo kit (Promega, Madison, Wis.), or by Trypan blue assay as indicated. The LC50 for 6-ETI in each cell line was determined using online EC50 software at changbioscience.com or using GraphPad Prism to determine the LC50 for 6-ETI, phospho-6-ETI and nucleoside analogs in MM cell lines and primary MM patient samples.

Another data set addresses ADK (Homo sapiens, UniProt P55263). Put plainly: In vitro ADK kinase assay with HPLC/MS. It is filed as biochemical. Conditions: 37° C., 5-360 minutes. Here is the method: The ADK kinase assay kit was purchased from Novocib, France. ADK and ATP provided in the kit were premixed into provided kinase assay buffer. The reaction at 37° C. was started by addition of 6-ETI in DMSO at T=0, followed by quenching of 10 μL of the reaction by 30 μL acetonitrile in an eppendorf tube at 5, 10, 15, 30, 60, 120, 150, 180, and 360 minutes. The quenched reaction was briefly vortexed and centrifuged at ˜7000 g, following which the supernatant was transferred into a fresh tube and stored at 4° C. for HPLC/MS analysis. A control reaction was set up containing ADK, ATP, and Inosine, in order to generate a standard peak for IMP, while ADK, DTT, and ATP controls were generated by dissolving individual kit components in a 3:1 acetonitrile:dH2O solution.
LCMS separations were performed using a Waters ACQUITY UPLC system equipped with ACQUITY PDA (diode array), Waters Micromass SQD 2000 spectrometer, and a Waters ACQUITY BEH C18 column (1.7 μm, 2.1×100 mm). The solvent system consisted of 0.1% Formic Acid in Water (Solvent A) and 0.1% Formic Acid in Acetonitrile (Solvent B). Flow was set to 0.3 mL/min, and a gradient of 5-95% Solvent B was applied over a period of 3 minutes. Total runtime was 4 minutes. Eluents were detected using a PDA at a wavelength of 254 nm. Mass data was obtained in both positive and negative electrospray mode, at a cone voltage of 30V.

Data set [2] has as its system NF-κB activity in BC3NFRen-luc#3 cells. The data set can be described thus: NF-κB luciferase reporter assay. It is filed as cell-based, human. The note with it: as early as 6 hours post-treatment. From the text:
Exponentially growing BC3-derived reporter cell lines (BC3NFκB-luc#6 or BC3NFRen-luc#3), and unrelated luciferase expressing U251-pGL3 cells were resuspended in respective RPMI-1640 complete media, and plated in a 96-well tissue culture microplate at 7.5*10^5 cells/mL and 3*10^5 cells/mL, respectively, in the presence or absence of varying concentrations of test compounds. […]

Data set [3] relates to Primary CD138+ human myeloma cells. Put plainly: Ex vivo viability of primary multiple myeloma samples. It is filed as cell-based. The note with it: 24 hours. Here is the method:
(§1) Cell viability assays were performed by plating log-phase cells in RPMI complete media with 20% FBS at 1*10^5 cells/mL, with concentrations of 6-ETI or phospho-6-ETI ranging from 0.1 nM to 100 μM. ATP content at 24, 48 and 72 hours post-treatment was measured by the CellTiter-Glo kit (Promega, Madison, Wis.), or by Trypan blue assay as indicated. The LC50 for 6-ETI in each cell line was determined using online EC50 software at changbioscience.com or using GraphPad Prism to determine the LC50 for 6-ETI, phospho-6-ETI and nucleoside analogs in MM cell lines and primary MM patient samples.
Bone marrow specimens were obtained from multiple myeloma patients at the New York-Presbyterian Hospital under informed consent as part of an Institutional Review Board-approved study in accordance with the Declaration of Helsinki. Primary CD138^+ human myelorna cells were isolated by Ficoll-Hypaque density gradient centrifugation. The CD138^+ bone marrow myeloma cells were then enriched from this fraction to >95% purity using an automated MACS CD138 MicroBeads system (Miltenyi Biotechnology, Inc., Auburn, Calif.). […] PBLs were harvested from normal blood using Ficoll-Paque (Sigma-Aldrich) as described previously. Cells were plated in RPMI-1640 supplemented with 20% FBS.

For a further data set, the system named is IBL1 cells. Put plainly: Trypan-blue exclusion viability, non-PEL cell line. Type of data set: cell-based. The note with it: Homo sapiens; selected non-PEL cell line (IBL1), 48 hours; read-out: LC50 by Trypan-blue exclusion. The protocol: as §1

Each structure is given as a SMILES string.

ADK, sequence (P55263 whole entry): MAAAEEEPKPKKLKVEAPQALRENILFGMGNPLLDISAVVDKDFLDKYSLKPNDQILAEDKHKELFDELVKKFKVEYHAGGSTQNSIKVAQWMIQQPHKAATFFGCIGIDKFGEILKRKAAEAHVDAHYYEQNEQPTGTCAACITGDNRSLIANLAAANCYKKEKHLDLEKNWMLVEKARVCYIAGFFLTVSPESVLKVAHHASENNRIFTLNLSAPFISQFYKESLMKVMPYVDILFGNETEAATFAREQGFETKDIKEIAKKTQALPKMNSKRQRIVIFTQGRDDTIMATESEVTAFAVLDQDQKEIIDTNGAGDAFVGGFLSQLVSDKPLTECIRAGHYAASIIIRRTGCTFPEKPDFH

In the case of `CCSc1ncnc2c1ncn2[C@@H]1O[C@H](CO)C(O)[C@@H]1O` (some centres unmarked) [Compound 6-ETI, 6-ethylthioinosine], in data set [1], the “LC50 change at higher cell density” value is “decreased strikingly”. Also, the “phosphorylation by ADK” value at ADK is reported as “ADK phosphorylates 6-ETI directly”. Moreover, in data set [2], the NF-κB reporter activity result was “inhibited NF-κB activity”. Besides, the sensitivity ex vivo result in data set [3] is reported as “showed sensitivity”. Moreover, the CC50 in the data set on IBL1 cells worked out at 134 µM.

The record behind these values is patent publication US20190225643A1, “NOVEL NUCLEOSIDE ANALOGS AND USE THEREOF IN THERAPEUTIC TREATMENT” (CORNELL UNIVERSITY, priority 2016, published 2019).
